{"source": "patent US9359445B2", "about": "“Compositions and methods for treating neurological disorders” (The J. David Gladstone Institutes, priority 2010, dated 2016)", "key": {"PKD1": {"system": "PKD1", "assay": "PKD1 phosphorylation (activation) in stimulated mouse cortical neurons, western blot", "type": "cell-based", "conditions": "for effect on glutamate-induced PKD1 phosphorylation: antagonist applied with glutamate; for PKD1 phosphorylation at activation loop (S744/8) and autophosphorylation (S916) sites after stimulation: mouse cortical cultures, substance applied alone, 10 min"}, "Venus-PKD1": {"system": "Venus-PKD1", "assay": "Venus-PKD1 translocation to dendritic puncta (puncta index) in transfected neurons", "type": "cell-based, mouse", "conditions": "for effect on glutamate-induced Venus-PKD1 puncta formation: drug applied with glutamate; for Venus-PKD1 translocation / puncta formation induced by the substance: substance applied alone, glutamate 30 μM, ACPD 500 μM, K+ 55 mM in the presence of APV"}, "pH-GluR2": {"system": "pH-GluR2", "assay": "pHluorin GluR2 recycling assay in mouse cortical neurons", "type": "cell-based", "text": "Rat GluR2 tagged with superecliptic pHluorin was cloned into pGW1 mammalian expression vector. mCherry was subcloned to replace enhanced green fluorescent protein (EGFP) in FUGW PKD1 shRNA and control vectors. mCherry served as a morphology marker to monitor the overall health of the cell. pHluorin-GluR2 and PKD1 shRNA or mutant control were transfected into mouse cortical neurons with Lipofectamine 2000 (Invitrogen). At 12 DIV, neurons were imaged on a Zeiss LSM 510 confocal microscope with a 40× water immersion lens in HBS as described above, only nimodipine was excluded. After 20 min of baseline imaging, 30 μM glutamate and 10 μM glycine were washed on to cells by gravity flow perfusion for 5 min, followed by washout with control HBS solution. Images were collected every 5 min. Average pixel intensity of pH-GluR2 in the cell body was calculated in MetaMorph, and background was measured in a cell-free region of the image and subtracted from fluorescence intensities before further calculations. Fractional change in fluorescent intensity (ΔF/F0) was calculated as Ft−F0/F0, where Ft is pHGluR2 intensity at time t and F0 is the average pH-GluR2 fluorescence intensity at four points before glutamate application."}}, "note": "Entries after “also recorded” stand apart in the source; their conditions may differ.", "data": [{"molecule": "NC(CCCP(=O)(O)O)C(=O)O", "note": "(racemic) [APV, D,L-2-amino-5-phosphonovaleric acid]", "values": [{"measurement": "effect on glutamate-induced PKD1 phosphorylation", "setting": "PKD1", "result": "did not block phosphorylation"}, {"measurement": "effect on glutamate-induced Venus-PKD1 puncta formation", "setting": "Venus-PKD1", "result": "blocked"}]}, {"molecule": "N[C@@]1(C(=O)O)CC[C@@H](C(=O)O)C1", "note": "[ACPD, (1S,3R)-1-aminocyclopentane-1,3-dicarboxylic acid]", "values": [{"measurement": "PKD1 phosphorylation at activation loop (S744/8) and autophosphorylation (S916) sites after stimulation", "setting": "PKD1; glutamate 30 μM", "result": "induced phosphorylation"}, {"measurement": "Venus-PKD1 translocation / puncta formation induced by the substance", "setting": "Venus-PKD1", "result": "did not induce translocation"}]}, {"molecule": "N[C@H](C(=O)O)c1cc(O)cc(O)c1", "note": "[DHPG, (S)-3,5-dihydroxyphenylglycine]", "values": [{"measurement": "PKD1 phosphorylation at activation loop (S744/8) and autophosphorylation (S916) sites after stimulation", "setting": "PKD1; glutamate 30 μM", "result": "induced phosphorylation"}]}, {"molecule": "CN(C)CCCn1cc(C2=C(c3c[nH]c4ccccc34)C(=O)NC2=O)c2ccccc21", "note": "[GF109203X]", "values": [{"measurement": "effect on glutamate-induced Venus-PKD1 puncta formation", "setting": "Venus-PKD1", "result": "had no effect"}, {"measurement": "effect on glutamate-induced Venus-PKD1 puncta formation", "setting": "Venus-PKD1; listed as GF 109203×", "result": "did not prevent PKD1 translocation"}]}, {"molecule": "Cn1c2ccccc2c2c3c(c4c5ccccc5n(CCC#N)c4c21)CNC3=O", "note": "[Gö6976]", "values": [{"measurement": "effect on glutamate-induced Venus-PKD1 puncta formation", "setting": "Venus-PKD1", "result": "had no effect"}]}, {"molecule": "COc1ccc2c(c1)c(C1=C(c3c[nH]c4ccccc34)C(=O)NC1=O)cn2CCCN(C)C", "note": "[Gö6983]", "values": [{"measurement": "effect on glutamate-induced Venus-PKD1 puncta formation", "setting": "Venus-PKD1", "result": "did not prevent PKD1 translocation; also recorded: had no effect"}]}, {"molecule": "CC(N)(C(=O)O)c1ccc(C(=O)O)cc1", "note": "(stereo not drawn) [MCPG, alpha-methyl-4-carboxyphenylglycine]", "values": [{"measurement": "effect on glutamate-induced PKD1 phosphorylation", "setting": "PKD1", "result": "reduced glutamate-induced PKD1 phosphorylation"}, {"measurement": "effect on glutamate-induced Venus-PKD1 puncta formation", "setting": "Venus-PKD1", "result": "unaffected"}]}, {"molecule": "CN[C@H](CC(=O)O)C(=O)O", "note": "[NMDA, N-methyl-D-aspartate]", "values": [{"measurement": "PKD1 phosphorylation at activation loop (S744/8) and autophosphorylation (S916) sites after stimulation", "setting": "PKD1; glutamate 30 μM", "result": "did not stimulate autophosphorylation"}, {"measurement": "Venus-PKD1 translocation / puncta formation induced by the substance", "setting": "Venus-PKD1", "result": "puncta formation was induced"}]}, {"molecule": "COc1ccc2c(c1)CC[C@@H]1[C@@H]2CC[C@]2(C)[C@@H](NCCCCCCN3C(=O)C=CC3=O)CC[C@@H]12", "note": "[U73122]", "values": [{"measurement": "effect on glutamate-induced Venus-PKD1 puncta formation", "setting": "Venus-PKD1", "result": "blocked glutamate-induced puncta formation; also recorded: blocks puncta formation"}]}, {"molecule": "glutamate", "values": [{"measurement": "duration of glutamate-induced PKD1 phosphorylation", "setting": "PKD1; glutamate 30 μM, time of stimulation", "result": "up to 60 min"}, {"measurement": "PKD1 phosphorylation at activation loop (S744/8) and autophosphorylation (S916) sites after stimulation", "setting": "PKD1; glutamate 30 μM", "result": "rapidly and robustly phosphorylated"}, {"measurement": "Venus-PKD1 translocation / puncta formation induced by the substance", "setting": "Venus-PKD1", "result": "translocated to discrete puncta throughout the dendrites"}, {"measurement": "pH-GluR2 fluorescence intensity", "setting": "pH-GluR2; after 5 minutes of glutamate application", "result": "~80 % of baseline"}, {"measurement": "pH-GluR2 fluorescence recovery", "setting": "pH-GluR2; fifty-five minutes after glutamate stimulation, neurons with endogenous PKD1", "result": "> 90 % of baseline"}, {"measurement": "pH-GluR2 fluorescence intensity at maximal endocytosis", "setting": "pH-GluR2; immediately after glutamate stimulation", "result": "20 % of baseline"}]}, {"molecule": "BDNF: brain-derived neurotophic factor, activates TrkB receptors (protein, UniProt P23560 19-247, looked up) Neurotrophic factor BDNF …: APMKEANIRGQGGLAYPGVRTHGTLESVNGPKAGSRGLTSLADTFEHVIEELLDEDQKVRPNEENNKDADLYTSRVMLSSQVPLEPPLLFLLEEYKNYLDAANMSMRVRRHSDPARRGELSVCDSISEWVTAADKKTAVDMSGGTVTVLEKVPVSKGQLKQYFYETKCNPMGYTKEGCRGIDKRHWNSQCRTTQSYVRALTMDSKKRIGWRFIRIDTSCVCTLTIKRGR", "values": [{"measurement": "PKD1 phosphorylation at activation loop (S744/8) and autophosphorylation (S916) sites after stimulation", "setting": "PKD1; glutamate 30 μM", "result": "did not activate PKD1"}]}]}
